From patent publication US20260207632A1, “C[…] THERAPY” (KINGDOM THERAPEUTICS LIMITED, priority 2022, published 2026)

Experiments:
rat VPA model of autism = experiment: Open field behaviour (P31-32): locomotor activity, centre crossing, circling, self-grooming in VPA rat model; format: in vivo; design: key to open field (spontaneous LMA on day 1) / open field (habituation LMA on day 2) / centre crossing / centre time / Circling / Grooming: +: improvement; Ø: no change
Description: (§1) In the first study, a sub-chronic 8-day dosing schedule was employed with the test compound CBD administered alone (10, 30 and 60 mg/kg, p.o. VPA/CBD; dose volume 5 ml/kg). Control animals were administered sterile saline (0.9% w/v, i.p.) in utero and the vehicle control (ethanol: Kolliphor HS-15:0.9% saline (1:1:18, v/v/v) p.o. VEH/VEH). The test compound and vehicle control were administered to the animals once daily for 7 days prior to, and once again on each day of behavioural assessment, 60 minutes prior to test which consisted of a battery of behavioural paradigms: P30 social play and bottle brush test, P31-32 open field exploratory behaviour. A reference positive control, the atypical antipsychotic risperidone (0.125 mg/kg, i.p., once per day for 8 days prior to and for duration of behavioural testing), was included in study one for comparison. Subsequent to behavioural analysis the effect of CBD on gastrointestinal permeability was evaluated four hours following oral administration of fluorescein isothiocyanate-labelled dextran measured in plasma on postnatal day 33. On postnatal day 34, 60 minutes post a final treatment with the test agents, animals were humanely euthanised and samples collected to evaluate inflammatory biomarkers, gastrointestinal function and histology. 5 In the second study, the sub-optimal dose of CBD (30 mg/kg, p.o.) was evaluated in combination with administration of THC at increasing concentration (0.75, 1.5 and 3 mg/kg, p.o. VPA/CBD+THC). Comparison was made to CBD administered alone at the sub-optimal and effective doses (30 and 60 mg/kg, p.o.) and to vehicle controls as per study one. Behavioural and gastrointestinal readouts were examined as per study one with terminal samples collected on the final day of the experiment.
Following eight days treatment with the test compound animals were scored for locomotor activity and exploratory behaviour in two 10-minute trials within an open field arena over two days, a protocol widely used at Berand and allows to distinguish between day 1 spontaneous locomotor activity and day 2 locomotor activity following habituation (pre-exposure to the arena on day 1). Each day the animals were placed into a […] black Perspex box with 30 cm side walls, under low light and monitored via remote video capture for spontaneous activity. Linked to Ethovision XT image analysis software these videos were analysed for total distance moved and number and duration of centre zone crossings as an indication of hyperactivity and anxiety-like behaviour. Manual scoring of the videos was conducted (blinded to treatment group) to determine frequency of circling behaviour (number of 360 degree turns) and duration of self-grooming (n=8).

[1] = tested on: colonic myeloperoxidase (MPO) activity; experiment: Colon myeloperoxidase (MPO) activity (P34) in distal colon, VPA rat model; format: in vivo; design: key to MPO activity: +: improvement; Ø: no change
Description: as §1
Five animals were chosen at random from each of the agreed treatment groups. Colon tissue was collected after euthanasia, weighted, flushed using cold sterile saline, and divided into three sections. One distal sample (approx. 1 cm×1 cm) was employed for intestinal myeloperoxidase (MPO) activity as described below by Berand Ltd. This sample was weighed and stored at −80° C. until use. A second proximal colon sample (approx. 1 cm×5 cm) was prepared for histological analysis by collection using the Swiss roll technique, placed into a cassette for paraffin embedding and preservation in 10% formalin solution for 24 hours. They were then transferred into 70% ethanol solution until paraffin embedded. These samples were shipped in 70% ethanol solution to Transpharmation Ltd at trinity College Dublin, Ireland for further processing. Haematoxylin & eosin staining was performed on the tissue before imaging. Five images were taken from each animal at 1.25× magnification. Using ImageJ the thickness of the muscle layer was measured at 5 locations throughout the section. A third medial section of colon (approx. 1 cm×2.5 cm) was frozen in liquid nitrogen for the analysis of cytokine expression and was shipped at minus 80° C. to Transpharmation Ltd at Trinity College Dublin, Ireland.
Analysis of colonic myeloperoxidase (MPO) activity employed a colorimetric activity assay kit (MAK068, Sigma-Aldrich, Ireland). Samples were analysed according to the manufacturer's instructions. Briefly, weighted distal colon tissues from all the groups were rapidly homogenized with 4 volumes of MPO Assay buffer and then centrifuged (13000 g×10 min, 4° C.) to obtain the supernatant. A 50 μl aliquot of each was added to a flat bottomed 96 well plate and brought to a final volume of 100 μl with MPO assay buffer. The MPO activity in milliunits/mL was determined using a 5,5′-dithiobis-(2-nitrobenzoic acid) (DTNB) probe to produce a TNB chromophore in a standard curve (0-50 nmol/mL). Standards and blank were prepared according to manufacturer's instruction. Absorbance was read at 412 nm at 60 minutes and expressed per mg of tissue sample. […]

[2] = cohort two, CBD 30 mg/kg, THC 0 mg/kg p.o.
[3] = cohort two, CBD 60 mg/kg, THC 0 mg/kg p.o.
[4] = study one, CBD 60 mg/kg, vs VPA/VEH
[5] = cohort one, risperidone 0.125 mg/kg i.p.
[6] = study one, risperidone 0.125 mg/kg i.p.

Q: `C=C(C)[C@@H]1CCC(C)=C[C@H]1c1c(O)cc(CCCCC)cc1O` [CBD, cannabidiol] was tested. Which Circling (rat VPA model of autism; cohort one, CBD 10 mg/kg p.o.) did it give?
A: Ø

Q: And the Grooming (rat VPA model of autism; cohort one, CBD 10 mg/kg p.o.)?
A: Ø

Q: And the centre crossing (rat VPA model of autism; cohort one, CBD 10 mg/kg p.o.)?
A: Ø

Q: What about the centre time (rat VPA model of autism; cohort one, CBD 10 mg/kg p.o.) of the same molecule?
A: Ø

Q: And the “open field (habituation LMA on day 2)” value (rat VPA model of autism; cohort one, CBD 10 mg/kg p.o.)?
A: Ø

Q: And the “open field (spontaneous LMA on day 1)” value (rat VPA model of autism; cohort one, CBD 10 mg/kg p.o.)?
A: Ø

Q: And the Circling (rat VPA model of autism; cohort one, CBD 30 mg/kg p.o.)?
A: Ø

Q: What about the Grooming (rat VPA model of autism; cohort one, CBD 30 mg/kg p.o.) of the same molecule?
A: Ø

Q: What about the centre crossing (rat VPA model of autism; cohort one, CBD 30 mg/kg p.o.) of the same molecule?
A: Ø

Q: What about the centre time (rat VPA model of autism; cohort one, CBD 30 mg/kg p.o.) of the same molecule?
A: Ø

Q: What about the “open field (habituation LMA on day 2)” value (rat VPA model of autism; cohort one, CBD 30 mg/kg p.o.) of the same molecule?
A: Ø

Q: And the “open field (spontaneous LMA on day 1)” value (rat VPA model of autism; cohort one, CBD 30 mg/kg p.o.)?
A: Ø

Q: And the Circling (rat VPA model of autism; cohort one, CBD 60 mg/kg p.o.)?
A: +

Q: What about the Grooming (rat VPA model of autism; cohort one, CBD 60 mg/kg p.o.) of the same molecule?
A: +

Q: What about the centre crossing (rat VPA model of autism; cohort one, CBD 60 mg/kg p.o.) of the same molecule?
A: Ø

Q: What about the centre time (rat VPA model of autism; cohort one, CBD 60 mg/kg p.o.) of the same molecule?
A: Ø

Q: What about the “open field (habituation LMA on day 2)” value (rat VPA model of autism; cohort one, CBD 60 mg/kg p.o.) of the same molecule?
A: +

Q: And the “open field (spontaneous LMA on day 1)” value (rat VPA model of autism; cohort one, CBD 60 mg/kg p.o.)?
A: +

Q: And the Circling (rat VPA model of autism; [2])?
A: +

Q: And the Grooming (rat VPA model of autism; [2])?
A: Ø

Q: And the centre crossing (rat VPA model of autism; [2])?
A: Ø

Q: What about the centre time (rat VPA model of autism; [2]) of the same molecule?
A: Ø

Q: And the “open field (habituation LMA on day 2)” value (rat VPA model of autism; [2])?
A: Ø

Q: And the “open field (spontaneous LMA on day 1)” value (rat VPA model of autism; [2])?
A: Ø

Q: And the Circling (rat VPA model of autism; [3])?
A: +

Q: What about the Grooming (rat VPA model of autism; [3]) of the same molecule?
A: +

Q: And the centre crossing (rat VPA model of autism; [3])?
A: +

Q: What about the centre time (rat VPA model of autism; [3]) of the same molecule?
A: +

Q: And the “open field (habituation LMA on day 2)” value (rat VPA model of autism; [3])?
A: +

Q: What about the “open field (spontaneous LMA on day 1)” value (rat VPA model of autism; [3]) of the same molecule?
A: +

Q: What about the “increase in circling behaviour, day 2” value (rat VPA model of autism; study one, CBD 60 mg/kg) of the same molecule?
A: significantly attenuated

Q: What about the “increase in self grooming, day 2” value (rat VPA model of autism; study one, CBD 60 mg/kg) of the same molecule?
A: reversed

Q: And the “increase in locomotor activity (distance travelled), day one” value (from here on “increase in locomotor activity … day one”) (rat VPA model of autism; [4])?
A: significantly prevented

Q: And the “increase in locomotor activity (distance travelled), day two” value (“increase in locomotor activity … day two” for short) (rat VPA model of autism; [4])?
A: significantly prevented

Q: And the “increase in circling and grooming behaviour, day one” value (rat VPA model of autism; study one, CBD (10, 30 and 60 mg/kg))?
A: without effect

Q: What about the “increase in circling behaviour, day 2” value (rat VPA model of autism; study two, CBD 30 mg/kg) of the same molecule?
A: without effect

Q: And the “increase in circling, day one” value (rat VPA model of autism; study two, CBD 30 mg/kg)?
A: significantly prevented

Q: What about the “increase in locomotor activity … day one” value (rat VPA model of autism; study two, CBD 30 mg/kg) of the same molecule?
A: without effect

Q: And the “increase in locomotor activity … day two” value (rat VPA model of autism; study two, CBD 30 mg/kg)?
A: without effect

Q: And the “increase in self grooming, day 2” value (rat VPA model of autism; study two, CBD 30 mg/kg)?
A: without effect

Q: What about the “increase in circling behaviour, day 2” value (rat VPA model of autism; study two, CBD 60 mg/kg) of the same molecule?
A: significantly attenuated

Q: What about the “increase in circling, day one” value (rat VPA model of autism; study two, CBD 60 mg/kg) of the same molecule?
A: significantly prevented

Q: What about the “increase in locomotor activity … day one” value (rat VPA model of autism; study two, CBD 60 mg/kg) of the same molecule?
A: significantly prevented

Q: What about the “increase in locomotor activity … day two” value (rat VPA model of autism; study two, CBD 60 mg/kg) of the same molecule?
A: significantly prevented

Q: What about the “increase in self grooming, day 2” value (rat VPA model of autism; study two, CBD 60 mg/kg) of the same molecule?
A: reversed

Q: And the MPO activity ([1]; cohort one, CBD 10 mg/kg p.o.)?
A: Ø

Q: What about the MPO activity ([1]; cohort one, CBD 30 mg/kg p.o.) of the same molecule?
A: Ø

Q: What about the MPO activity ([1]; cohort one, CBD 60 mg/kg p.o.) of the same molecule?
A: +

Q: And the MPO activity [1, 2]?
A: Ø

Q: And the MPO activity [1, 3]?
A: +

Q: What about the “increase in colonic MPO activity” value [1, 4] of the same molecule?
A: significantly prevented

Q: What about the “increase in colonic MPO activity” value ([1]; study two, CBD 30 mg/kg) of the same molecule?
A: without significant effect

Q: What about the “increase in colonic MPO activity” value ([1]; study two, CBD 60 mg/kg) of the same molecule?
A: significantly prevented

Q: `Cc1nc2n(c(=O)c1CCN1CCC(c3noc4cc(F)ccc34)CC1)CCCC2` [Risperidone, risperidone] was tested. Which Circling (rat VPA model of autism; [5]) did it give?
A: Ø

Q: What about the Grooming (rat VPA model of autism; [5]) of the same molecule?
A: Ø

Q: What about the centre crossing (rat VPA model of autism; [5]) of the same molecule?
A: Ø

Q: And the centre time (rat VPA model of autism; [5])?
A: Ø

Q: What about the “open field (habituation LMA on day 2)” value (rat VPA model of autism; [5]) of the same molecule?
A: +

Q: What about the “open field (spontaneous LMA on day 1)” value (rat VPA model of autism; [5]) of the same molecule?
A: +

Q: And the “circling and self-grooming, day one or two” value (rat VPA model of autism; [6])?
A: did not reach significance

Q: And the “increased locomotor activity, day two” value (rat VPA model of autism; [6])?
A: significantly reduced

Q: And the “locomotor hyperactivity, day one” value (rat VPA model of autism; [6])?
A: significantly reduced

Q: And the MPO activity [1, 5]?
A: Ø

Q: And the “increase in colonic MPO activity” value [1, 6]?
A: without effect
